Measured values as given in patent US11028085B2, “Substituted isoindolin-1-ones and 2,3-dihydro-1h-pyrrolo[3,4-c]pyridin-1-ones as hpk1 antagonists” (Nimbus Saturn, Inc., priority 2019, dated 2021).

The compounds below were run against HPK1 (Homo sapiens (Human), UniProt Q92918) (assay: HPK1 biochemical enzyme assay (microfluidic mobility shift assay)). Settings: 1.5 nM HPK1, ATP 1 mM final, 60 min at RT, Caliper EZ Reader; read-out: HPK1 1000UMATP caliper IC50.
Description: HPK1 biochemical enzyme assay: HPK1 enzyme inhibition was measured using a microfluidic mobility shift assay. […] Test compounds were titrated in ten point curves (top final assay concentration […]), and preincubated with enzyme/substrate mix for 30 min prior to initiation of the reaction by addition of ATP (1 mM final concentration) and substrate (1 μM final concentration; Carna Biosciences) diluted in assay buffer supplemented by MgCl2 (final assay concentration of 5 mM). Following 60 min incubation at RT, the reaction was terminated by addition of 60 µl/well termination buffer (Carna Biosciences) and signal determination using a Caliper EZ Reader (Perkin Elmer, UK). […] The compound numbers correspond to the compound numbers in Table 1.

HPK1, sequence (Q92918 whole entry): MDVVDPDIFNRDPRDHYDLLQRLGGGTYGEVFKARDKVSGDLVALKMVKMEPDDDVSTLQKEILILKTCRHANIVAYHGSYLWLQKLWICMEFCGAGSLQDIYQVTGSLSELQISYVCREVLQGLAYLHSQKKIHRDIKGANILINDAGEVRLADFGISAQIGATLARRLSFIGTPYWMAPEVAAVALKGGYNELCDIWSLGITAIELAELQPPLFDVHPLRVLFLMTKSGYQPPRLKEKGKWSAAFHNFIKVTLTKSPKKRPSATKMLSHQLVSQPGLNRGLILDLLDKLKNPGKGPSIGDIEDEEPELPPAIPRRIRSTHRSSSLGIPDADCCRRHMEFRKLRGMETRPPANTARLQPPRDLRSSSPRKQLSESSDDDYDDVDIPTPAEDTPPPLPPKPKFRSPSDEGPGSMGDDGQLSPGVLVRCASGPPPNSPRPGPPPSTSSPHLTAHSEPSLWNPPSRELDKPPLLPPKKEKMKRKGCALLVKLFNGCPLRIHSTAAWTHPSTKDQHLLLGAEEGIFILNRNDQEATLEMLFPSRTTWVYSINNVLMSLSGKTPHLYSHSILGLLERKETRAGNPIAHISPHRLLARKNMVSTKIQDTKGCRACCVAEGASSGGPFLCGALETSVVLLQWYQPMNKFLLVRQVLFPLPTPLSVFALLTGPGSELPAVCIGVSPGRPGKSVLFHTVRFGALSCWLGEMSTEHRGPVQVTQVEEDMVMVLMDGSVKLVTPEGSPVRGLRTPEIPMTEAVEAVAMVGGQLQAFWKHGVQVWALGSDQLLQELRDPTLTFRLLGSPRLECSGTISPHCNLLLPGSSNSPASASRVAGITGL

IC50, < 0.1 µM:
Cc1ccn2c(-c3ncc(Nc4cccc(N5CCC6CNCC65)n4)c4c3CNC4=O)cnc2c1F (stereo not drawn) [I-481]
COCC1CN(c2ccc(Nc3ccc(-c4cnc5cc(F)ccn45)c4c3C(=O)NC4)nc2CN(C)C)CCO1 (stereo in doubt) [I-711, (R)-7-((6-((dimethylamino)-methyl)-5-(2-(methoxymeth-yl)morpholino)pyridin-2-yl)amino)-4-(7-fluoroimidazo [1,2-a]pyridin-3-yl)isoindolin-1-one]
C[C@@H]1CN(c2ccc(Nc3ccc(-c4cnc5cc(F)ccn45)c4c3C(=O)NC4)nc2CN(C)C)CCO1 [I-541, 7-[[6-[(dimethylamino)-methyl]-5-[(2R)-2-methylmorpho-lin-4-yl]-2-pyridyl]amino] 4-(7-fluoroimidazo [1,2-a]pyridin-3-yl)isoindolin-1-one]
